Consider two compounds from ChEMBL document CHEMBL1132399, “Synthesis of novel orthoalkylaminophenol derivatives as potent neuroprotective agents in vitro” (Bioorg Med Chem Lett, 1999).

Data set [1] deals with HT-22. Nature of the data set: Tested in vitro for neurotoxicity on murine HT-22 hippocampal cell culture, monitored by LDH assay. It is filed as functional. Conditions: Mus musculus, read-out: TC50 (the source's name).
The test system of data set [2] is HT-22. Nature of the data set: Tested in vitro for neurotoxicity on murine HT-22 hippocampal cell culture, monitored by MTT reduction assay. Conditions: Mus musculus, read-out: TC50 (the source's name). The data set is classed as functional. (Formazan colour is commonly taken as a measure of viable cells.)
In data set [3] the test system is HT-22. The experiment in a line: Maximum tolerated concentration required for neurotoxicity on murine HT-22 hippocampal cell culture, monitored by LDH assay tested in vitro. The data set is classed as functional, Mus musculus.
The test system of data set [4] is HT-22. Nature of the data set: Maximum tolerated concentration required for neurotoxicity on murine HT-22 hippocampal cell culture, monitored by MTT reduction assay tested in vitro. The data set is classed as functional, Mus musculus.
For data set [5], the system named is HT-22. Nature of the data set: Compound was tested in vitro for its neuroprotective activity against L-homocysteic acid(L-HCA) cytotoxicity in murine HT-22 hippocampal cell culture monitored by MTT reduction assay. It is filed as functional, Mus musculus.
For data set [6], the system named is HT-22. The experiment in a line: Tested in vitro for its neuroprotective activity against L-homocysteic acid(L-HCA) cytotoxicity, in murine HT-22 hippocampal cell culture, monitored by LDH assay. It is filed as functional, Mus musculus.
Data set [7] can be described thus: Safety index (MTC/PC50). It is filed as toxicity. Conditions: read-out: Safety index.
Data set [8] relates to HT-22. Nature of the data set: Tested in vitro for its neuroprotective activity against L-homocysteic acid(L-HCA) cytotoxicity, in murine HT-22 hippocampal cell culture, monitored by MTT reduction assay. It is filed as functional, Mus musculus.

Each structure is given as a SMILES string.

Take `Cc1c(C)c2c(c(C)c1O)CC[C@@](C)(CCC[C@H](C)CCC[C@H](C)CCCC(C)C)O2` [ALPHA-TOCOPHEROL]: the CC50 in data set [1] and in data set [2] was above 200 µM in each case. Also, the MTC in data set [3] and in data set [4] was above 200 µM in each case. The PC50 in data set [5] worked out at 0.8 µM; in data set [6] it was 1.7 µM. The selectivity ratio in data set [7] is above 250.

With `O=C(c1cc(O)c(O)c(O)c1)c1ccc(O)c(O)c1O` [EXIFONE], the CC50 in data set [1] was determined as 91 µM; in data set [2], 34 µM. Moreover, the figures for the MTC in data set [3] and in data set [4] were 50 µM and 10 µM, respectively. Besides, the PC50 in data set [6] and in data set [8] was above 10 µM in each case.
